Experimental data taken from patent publication US20250171495A1, “MUTLI-TARGETED SERINE PROTEASE INHIBITORS FOR TREATMENT OF CANCER AND VIRAL INFECTION” (Washington University, priority 2023, published 2025).
Several values for one entry are separate records, joined by “and”; a condition that tells them apart may be missing. Equal entries are not always repeated.

How the values were obtained:
Type in all cases: biochemical
matriptase = molecular target: T1, matriptase (Homo sapiens, UniProt Q9Y5Y6); assay: HyCoSuL P4-P2 substrate specificity screening, matriptase; details: for P2 Position Substrate Activity for matriptase (percent substrate cleavage/proteolysis): residue fixed at P2 position; for P3 Position Various Amino Acids Substrate Activity, matriptase (percent substrate cleavage/proteolysis): residue fixed at P3 position of substrate library; for P4 Position Various Amino Acids Substrate Activity, matriptase (percent substrate proteolysis/cleavage): residue fixed at P4 position of substrate library; for P4 Position Substrate Activity for matriptase (percent substrate cleavage/proteolysis): residue fixed at P4 position
T1 sequence (Q9Y5Y6 1-855): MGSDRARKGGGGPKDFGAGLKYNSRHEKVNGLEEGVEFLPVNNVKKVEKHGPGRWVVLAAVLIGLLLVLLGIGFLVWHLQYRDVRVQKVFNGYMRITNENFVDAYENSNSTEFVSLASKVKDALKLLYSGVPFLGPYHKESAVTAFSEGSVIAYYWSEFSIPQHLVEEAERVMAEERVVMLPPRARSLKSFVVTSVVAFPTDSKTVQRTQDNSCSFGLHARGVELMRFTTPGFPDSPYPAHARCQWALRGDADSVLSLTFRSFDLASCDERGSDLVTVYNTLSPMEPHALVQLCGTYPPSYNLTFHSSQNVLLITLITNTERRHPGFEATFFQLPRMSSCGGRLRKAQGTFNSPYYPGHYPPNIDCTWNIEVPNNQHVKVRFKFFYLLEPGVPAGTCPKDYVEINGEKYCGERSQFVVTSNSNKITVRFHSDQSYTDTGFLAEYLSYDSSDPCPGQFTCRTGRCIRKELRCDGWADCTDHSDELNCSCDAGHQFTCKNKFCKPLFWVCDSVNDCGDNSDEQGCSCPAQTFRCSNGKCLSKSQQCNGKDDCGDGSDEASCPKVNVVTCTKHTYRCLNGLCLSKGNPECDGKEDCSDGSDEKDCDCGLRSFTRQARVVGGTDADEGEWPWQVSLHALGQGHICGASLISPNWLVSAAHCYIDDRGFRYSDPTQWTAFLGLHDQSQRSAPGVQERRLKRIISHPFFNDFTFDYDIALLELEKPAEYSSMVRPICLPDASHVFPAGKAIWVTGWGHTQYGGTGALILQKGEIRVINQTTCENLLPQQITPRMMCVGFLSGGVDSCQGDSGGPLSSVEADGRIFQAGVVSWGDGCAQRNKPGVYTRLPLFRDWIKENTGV

HGFA = molecular target: T2, HGFA (Homo sapiens, UniProt Q04756); assay: HyCoSuL P4-P2 substrate specificity screening, HGFA; details: for P2 Position Substrate Activity for HGFA (percent substrate cleavage/proteolysis): residue fixed at P2 position; for P3 Position Various Amino Acids Substrate Activity, HGFA (percent substrate cleavage/proteolysis): residue fixed at P3 position of substrate library; for P4 Position Substrate Activity for HGFA (percent substrate cleavage/proteolysis): residue fixed at P4 position; for P4 Position Various Amino Acids Substrate Activity, HGFA (percent substrate proteolysis/cleavage): residue fixed at P4 position of substrate library
T2 sequence (Q04756 373-655): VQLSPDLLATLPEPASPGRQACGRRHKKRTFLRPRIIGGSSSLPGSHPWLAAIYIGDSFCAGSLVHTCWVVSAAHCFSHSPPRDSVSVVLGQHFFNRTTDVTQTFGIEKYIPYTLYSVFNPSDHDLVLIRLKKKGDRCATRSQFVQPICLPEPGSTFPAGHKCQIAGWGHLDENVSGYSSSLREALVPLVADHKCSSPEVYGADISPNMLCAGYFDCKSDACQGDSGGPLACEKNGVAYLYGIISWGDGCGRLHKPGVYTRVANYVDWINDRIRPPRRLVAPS

TMPRSS2 = TMPRSS2 (Homo sapiens, UniProt O15393); assay: PS-SCL / HyCoSuL substrate specificity screening, TMPRSS2; details: for P2 Position Substrate Activity for TMPRSS2 (percent substrate cleavage/proteolysis): residue fixed at P2 position of substrate library; for P4 Position Substrate Activity for TMPRSS2 (percent substrate cleavage/proteolysis) / P4 Position Various Amino Acids Substrate Activity, TMPRSS2 (percent substrate proteolysis/cleavage): residue fixed at P4 position of substrate library
hepsin = molecular target: T3, hepsin (Homo sapiens, UniProt P05981); assay: HyCoSuL P4-P2 substrate specificity screening, hepsin; details: for P2 Position Substrate Activity for hepsin (percent substrate cleavage/proteolysis): residue fixed at P2 position; for P3 Position Various Amino Acids Substrate Activity, hepsin (percent substrate cleavage/proteolysis): residue fixed at P3 position of substrate library; for P4 Position Substrate Activity for hepsin (percent substrate cleavage/proteolysis): residue fixed at P4 position; for P4 Position Various Amino Acids Substrate Activity, hepsin (percent substrate proteolysis/cleavage): residue fixed at P4 position of substrate library
T3 construct: purchased R&D Systems 4776-SE-010

[1] = P1-Arg HyCoSuL, 100 μM, best recognized amino acid set to 100%
[2] = best recognized amino acid set to 100%
[3] = residue fixed at P3 position of substrate library
[4] = residue fixed at P3 position, P1-Arg HyCoSuL, 100 μM, best recognized amino acid set to 100%

TMPRSS2, sequence (O15393 whole entry): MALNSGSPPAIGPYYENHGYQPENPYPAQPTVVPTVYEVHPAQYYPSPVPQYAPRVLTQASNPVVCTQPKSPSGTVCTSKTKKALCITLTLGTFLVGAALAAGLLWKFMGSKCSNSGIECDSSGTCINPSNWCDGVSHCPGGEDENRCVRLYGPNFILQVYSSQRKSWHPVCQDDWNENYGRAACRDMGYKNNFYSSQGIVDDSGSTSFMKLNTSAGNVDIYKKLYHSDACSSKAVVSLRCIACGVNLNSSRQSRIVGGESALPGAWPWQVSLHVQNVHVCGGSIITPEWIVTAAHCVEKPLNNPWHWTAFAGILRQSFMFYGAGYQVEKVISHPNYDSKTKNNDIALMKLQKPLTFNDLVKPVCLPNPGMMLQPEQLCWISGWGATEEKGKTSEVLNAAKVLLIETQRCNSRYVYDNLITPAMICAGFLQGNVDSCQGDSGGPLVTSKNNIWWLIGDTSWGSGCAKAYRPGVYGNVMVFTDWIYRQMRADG
T3 sequence (P05981 163-417 limits assumed): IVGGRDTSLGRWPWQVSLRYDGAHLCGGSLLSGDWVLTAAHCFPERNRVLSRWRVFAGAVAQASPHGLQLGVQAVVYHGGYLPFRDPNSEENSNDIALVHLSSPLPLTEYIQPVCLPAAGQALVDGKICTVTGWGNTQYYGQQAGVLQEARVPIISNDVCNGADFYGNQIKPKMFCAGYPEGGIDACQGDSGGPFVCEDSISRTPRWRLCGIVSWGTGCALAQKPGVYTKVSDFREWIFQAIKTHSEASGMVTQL
T3 sequence (P05981 1-162 partner limits assumed): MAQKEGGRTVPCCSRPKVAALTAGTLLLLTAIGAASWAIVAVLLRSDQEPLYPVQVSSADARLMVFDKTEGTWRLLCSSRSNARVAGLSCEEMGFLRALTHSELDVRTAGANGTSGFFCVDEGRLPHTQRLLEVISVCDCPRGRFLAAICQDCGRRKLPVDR

Row | Substance | P2 Position Substrate Activity for matriptase (percent substrate cleavage/proteolysis) (matriptase; [1]) | P3 Position Various Amino Acids Substrate Activity, matriptase (percent substrate cleavage/proteolysis) (matriptase) | P4 Position Various Amino Acids Substrate Activity, matriptase (percent substrate proteolysis/cleavage) (matriptase) | P4 Position Substrate Activity for matriptase (percent substrate cleavage/proteolysis) (matriptase; [1]) | P2 Position Substrate Activity for HGFA (percent substrate cleavage/proteolysis) (HGFA; [1]) | P3 Position Various Amino Acids Substrate Activity, HGFA (percent substrate cleavage/proteolysis) (HGFA) | P4 Position Substrate Activity for HGFA (percent substrate cleavage/proteolysis) (HGFA; [1]) | P2 Position Substrate Activity for TMPRSS2 (percent substrate cleavage/proteolysis) (TMPRSS2; [2]) | P3 Position Various Amino Acids Substrate Activity, TMPRSS2 (percent substrate cleavage/proteolysis) (TMPRSS2; [3]) | P4 Position Substrate Activity for TMPRSS2 (percent substrate cleavage/proteolysis) (TMPRSS2; [2]) | P2 Position Substrate Activity for hepsin (percent substrate cleavage/proteolysis) (hepsin; [1]) | P3 Position Various Amino Acids Substrate Activity, hepsin (percent substrate cleavage/proteolysis) (hepsin) | P4 Position Substrate Activity for hepsin (percent substrate cleavage/proteolysis) (hepsin; [1]) | P4 Position Various Amino Acids Substrate Activity, HGFA (percent substrate proteolysis/cleavage) (HGFA) | P4 Position Various Amino Acids Substrate Activity, TMPRSS2 (percent substrate proteolysis/cleavage) (TMPRSS2) | P4 Position Various Amino Acids Substrate Activity, hepsin (percent substrate proteolysis/cleavage) (hepsin) | P3 Position Substrate Activity for matriptase (percent substrate cleavage/proteolysis) (matriptase; [4]) | P3 Position Substrate Activity for HGFA (percent substrate cleavage/proteolysis) (HGFA; [4]) | P3 Position Substrate Activity for TMPRSS2 (percent substrate cleavage/proteolysis) (TMPRSS2; residue fixed at P3 position of substrate library, best recognized amino acid set to 100%) | P3 Position Substrate Activity for hepsin (percent substrate cleavage/proteolysis) (hepsin; [4])
1 | L-Hyp | 2% | 0% | 50% | 50.16% | 3.95% | 2.18% | 10.66% | 10.38% | 2.19% | 33.28% | 38.67% | 4.70% | 37.81% |  |  |  |  |  |  | 
2 | D-Asn | 0% | 2% | 7% |  | 0.00% | 15.16% |  | 0.00% | 0.00% |  | 0.00% | 38.75% |  | 7.38% | 19.65% | 18.48% |  |  |  | 
3 | L-Thr | 15% | 31% | 14% |  | 8.87% | 14.51% |  | 22.02% | 39.80% |  | 70.75% | 35.34% |  | 7.67% | 21.84% | 29.29% |  |  |  | 
4 | L-Leu | 12% | 22% | 17% |  | 100.00% | 13.71% |  | 5.90% | 18.81% |  | 100.00% | 19.51% |  | 10.18% | 30.24% | 33.10% |  |  |  | 
5 | L-Arg | 0% | 70% | 100% | 100.00% | 2.08% |  | 23.62% | 5.65% |  | 27.99% | 57.23% |  | 80.32% |  |  |  | 62.39% and 70.35% | 43.98% | 27.44% | 70.75%
6 | L-Asn | 12% | 14% | 10% |  | 4.79% | 6.12% |  | 9.49% | 19.47% |  | 63.72% | 24.47% |  | 8.20% | 21.89% | 25.25% |  |  |  | 
7 | L-His | 30% | 17% | 10% |  | 4.00% | 11.93% |  | 15.38% | 26.27% |  | 31.24% | 43.05% |  | 8.90% | 24.98% | 25.35% |  |  |  | 
